Where two headings read alike, the source gives them in different places.
Legend:
[1] = tested on: Human platelet aggregation caused by ADP; test: Inhibition of ADP-induced platelet aggregation (Mimic-human PRP); format: cell-based; conditions: 20 μM ADP, human platelet concentrate diluted with PPP, absorption at 595 nm
How it was run: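 Ki came from non-linear sigmoidal fits of inhibition, measured as the 3-min rise in absorbance at 595 nm after 20 μM ADP, relative to 0/20 μM ADP controls. Platelets (3–4×10^8/mL in PPP-diluted human PRP) were exposed to 0.01–30 μM compound for 20 min at room temperature beforehand.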

Human P2Y12 receptor = biological target: T1, Human P2Y12 receptor (Homo sapiens, UniProt Q9H244); test: Human P2Y12 receptor cell membrane binding assay with [3H] 2-Mes-ADP
T1 construct: expressed in transfected cells; host or cells: HEK cells
How it was run: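 Competition binding used 1 nM [3H]2-MeS-ADP on P2Y12-expressing HEK cell membranes for 1 h at room temperature, followed by filtration and scintillation counting.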

[2] = 1 nM [3H] 2-Mes-ADP, membranes of HEK cells expressing P2Y12 receptor, read-out: Binding activity (IC50)

T1 sequence (Q9H244 whole entry): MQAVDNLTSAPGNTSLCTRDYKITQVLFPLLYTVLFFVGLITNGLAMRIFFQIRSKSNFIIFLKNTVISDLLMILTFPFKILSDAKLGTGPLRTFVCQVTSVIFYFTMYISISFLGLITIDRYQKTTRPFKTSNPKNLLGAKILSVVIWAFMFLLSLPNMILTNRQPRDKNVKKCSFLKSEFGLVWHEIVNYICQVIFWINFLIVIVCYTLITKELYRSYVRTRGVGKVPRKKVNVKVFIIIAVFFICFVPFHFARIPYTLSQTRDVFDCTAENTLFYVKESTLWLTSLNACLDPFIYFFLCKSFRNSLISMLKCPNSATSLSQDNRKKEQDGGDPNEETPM

Row | SMILES | Ki [1] | IC50 (Human P2Y12 receptor; [2]) | IC50 (Human P2Y12 receptor)
1 | CCCc1cc2c(N3CCn4c(nnc4C(F)(F)F)C3)nc(N3CC[C@H](C(=O)NC)C3)nc2s1 [Example 1-87, (S)-1-[6-Propyl-4-(3-trifluoromethyl-5,6-dihydro-8H-[1,2,4]triazolo[4,3-a]pyrazin-7-yl)-thieno[2,3-d]pyrimidin-2-yl]-pyrrolidine-3-carboxylic acid methylamide] | 11 nM | 67 nM | 
2 | CCCc1cc2c(N3CCn4c(nnc4C(F)(F)F)C3)nc(N3CC[C@H](C(=O)NO)C3)nc2s1 [Example 1-89, (S)-1-[6-Propyl-4-(3-trifluoromethyl-5,6-dihydro-8H-[1,2,4]triazolo[4,3-a]pyrazin-7-yl)-thieno[2,3-d]pyrimidin-2-yl]-pyrrolidine-3-carboxylic acid hydroxyamide] | 12 nM | 55 nM | 
3 | CCCc1cc2c(N3CCn4c(nnc4C(F)(F)F)C3)nc(N3CC[C@H](C(=O)NCCO)C3)nc2s1 [Example 1-90, (S)-1-[6-Propyl-4-(3-trifluoromethyl-5,6-dihydro-8H-[1,2,4]triazolo[4,3-a]pyrazin-7-yl)-thieno[2,3-d]pyrimidin-2-yl]-pyrrolidine-3-carboxylic acid (2-hydroxy-ethyl)-amide] | 50 nM | 110 nM | 
4 | CCCc1cc2c(N3CCn4c(nnc4C(F)(F)F)C3)nc(N3CC[C@H](C(=O)NCCN)C3)nc2s1 [Example 1-91, (S)-1-[6-Propyl-4-(3-trifluoromethyl-5,6-dihydro-8H-[1,2,4]triazolo[4,3-a]pyrazin-7-yl)-thieno[2,3-d]pyrimidin-2-yl]-pyrrolidine-3-carboxylic acid (2-amino-ethyl)-amide] | 140 nM | 190 nM | 
5 | CCCc1cc2c(N3CCn4c(nnc4C(F)(F)F)C3)nc(N3CC3C(=O)OC)nc2s1 (stereo not drawn) [Example 1-96, 1-[6-Propyl-4-(3-trifluoromethyl-5,6-dihydro-8H-[1,2,4]triazolo[4,3-a]pyrazin-7-yl)-thieno[2,3-d]pyrimidin-2-yl]-aziridine-2-carboxylic acid methyl ester] | 21 nM |  | 630 nM
6 | CCCc1cc2c(N3CCn4c(nnc4C(F)(F)F)C3)nc(N3CCC(N(C)C)C3)nc2s1 (stereo not drawn) [Example 1-97, Dimethyl-{1-[6-propyl-4-(3-trifluoromethyl-5,6-dihydro-8H-[1,2,4]triazolo[4,3-a]pyrazin-7-yl)-thieno[2,3-d]pyrimidin-2-yl]-pyrrolidin-3-yl}-amine] | 13 nM | 140 nM | 
7 | CCCc1cc2c(N3CCn4c(nnc4C(F)(F)F)C3)nc(NC3CCNC3)nc2s1 (stereo not drawn) [Example 1-98, [6-Propyl-4-(3-trifluoromethyl-5,6-dihydro-8H-[1,2,4]triazolo[4,3-a]pyrazin-7-yl)-thieno[2,3-d]pyrimidin-2-yl]-pyrrolidin-3-yl-amine] | 32 nM | 470 nM | 
8 | CCCc1cc2c(N3CCn4c(nnc4C(F)(F)F)C3)nc(N3CC[C@H](NCCO)C3)nc2s1 [Example 1-99, 2-{(S)-1-[6-Propyl-4-(3-trifluoromethyl-5,6-dihydro-8H-[1,2,4]triazolo[4,3-a]pyrazin-7-yl)-thieno[2,3-d]pyrimidin-2-yl]-pyrrolidin-3-ylamino}-ethanol] | 43 nM | 130 nM | 
9 | CCCc1cc2c(N3CCn4c(nnc4C(F)(F)F)C3)nc(N3CC[C@H](NC(=O)CC#N)C3)nc2s1 [Example 1-103, 2-Cyano-N-{(S)-1-[6-propyl-4-(3-trifluoromethyl-5,6-dihydro-8H-[1,2,4]triazolo[4,3-a]pyrazin-7-yl)-thieno[2,3-d]pyrimidin-2-yl]-pyrrolidin-3-yl}-acetamide] | 6.6 nM | 50 nM | 
10 | CCCc1cc2c(N3CCn4c(nnc4C(F)(F)F)C3)nc(N3CC[C@H](NC(=O)CC(F)(F)F)C3)nc2s1 [Example 1-104, 3,3,3-Trifluoro-N-{(S)-1-[6-propyl-4-(3-trifluoromethyl-5,6-dihydro-8H-[1,2,4]triazolo[4,3-a]pyrazin-7-yl)-thieno[2,3-d]pyrimidin-2-yl]-pyrrolidin-3-yl}-propionamide] | 86 nM | 80 nM | 
11 | CCCc1cc2c(N3CCn4c(nnc4C(F)(F)F)C3)nc(N3CC[C@H](NC(=O)CCO)C3)nc2s1 [Example 1-109, 3-Hydroxy-N-{(S)-1-[6-propyl-4-(3-trifluoromethyl-5,6-dihydro-8H-[1,2,4]triazolo[4,3-a]pyrazin-7-yl)-thieno[2,3-d]pyrimidin-2-yl]-pyrrolidin-3-yl}-propionamide] | 26 nM | 80 nM | 
12 | CCCc1cc2c(N3CCn4c(nnc4C(F)(F)F)C3)nc(N3CC[C@H](NC(=O)CCN)C3)nc2s1 [Example 1-110, 3-Amino-N-{(S)-1-[6-propyl-4-(3-trifluoromethyl-5,6-dihydro-8H-[1,2,4]triazolo[4,3-a]pyrazin-7-yl)-thieno[2,3-d]pyrimidin-2-yl]-pyrrolidin-3-yl}-propionamide] | 60 nM | 670 nM | 
13 | CCCc1cc2c(N3CCn4c(nnc4C(F)(F)F)C3)nc(N3CC[C@H](NC(=O)c4ccccn4)C3)nc2s1 [Example 1-111, Pyridine-2-carboxylic Acid {(S)-1-[6-propyl-4-(3-trifluoromethyl-5,6-dihydro-8H-[1,2,4]triazolo[4,3-a]pyrazin-7-yl)-thieno[2,3-d]pyrimidin-2-yl]-pyrrolidin-3-yl}-amide] | 590 nM | 150 nM | 
14 | CCCc1cc2c(N3CCn4c(nnc4C(F)(F)F)C3)nc(N3CC[C@H](NC(=O)c4ccco4)C3)nc2s1 [Example 1-112, Furan-2-carboxylic Acid {(S)-1-[6-propyl-4-(3-trifluoromethyl-5,6-dihydro-8H-[1,2,4]triazolo[4,3-a]pyrazin-7-yl)-thieno[2,3-d]pyrimidin-2-yl]-pyrrolidin-3-yl}-amide] | 260 nM | 50 nM | 
15 | CCCc1cc2c(N3CCn4c(nnc4C(F)(F)F)C3)nc(N3CC[C@H](NS(C)(=O)=O)C3)nc2s1 [Example 1-113, N-{(S)-1-[6-Propyl-4-(3-trifluoromethyl-5,6-dihydro-8H-[1,2,4]triazolo[4,3-a]pyrazin-7-yl)-thieno[2,3-d]pyrimidin-2-yl]-pyrrolidin-3-yl}-methanesulfonamide] | 36 nM | 32 nM | 
16 | CCCc1cc2c(N3CCn4c(nnc4C(F)(F)F)C3)nc(N3CC(=O)C(N)C3)nc2s1 (stereo not drawn) [Example 1-115, 4-Amino-1-[6-propyl-4-(3-trifluoromethyl-5,6-dihydro-8H-[1,2,4]triazolo[4,3-a]pyrazin-7-yl)-thieno[2,3-d]pyrimidin-2-yl]-pyrrolidin-3-one] | 16 nM | 110 nM | 
17 | CCCc1cc2c(N3CCn4c(nnc4C(F)(F)F)C3)nc(N3CC(=NO)C(N)C3)nc2s1 (stereo not drawn) [Example 1-116, 4-Amino-1-[6-propyl-4-(3-trifluoromethyl-5,6-dihydro-8H-[1,2,4]triazolo[4,3-a]pyrazin-7-yl)-thieno[2,3-d]pyrimidin-2-yl]-pyrrolidin-3-one oxime] | 28 nM | 70 nM | 
18 | CCCc1cc2c(N3CCn4c(nnc4C(F)(F)F)C3)nc(N3CC(=NOC)C(N)C3)nc2s1 (stereo not drawn) [Example 1-117, 4-Amino-1-[6-propyl-4-(3-trifluoromethyl-5,6-dihydro-8H-[1,2,4]triazolo[4,3-a]pyrazin-7-yl)-thieno[2,3-d]pyrimidin-2-yl]-pyrrolidin-3-one O-methyl-oxime] | 42 nM | 220 nM | 

Source: US20110166121A1 (LG LIFE SCIENCES LTD., priority 2008, published 2011)
